Peptide text beside a SMILES is read from it.
Columns and labels:
Type in all cases: in vivo, human
[1] = test system: inflammation, dermatitis, or eczema lesions; test: Topical application to chronic inflammation, dermatitis, eczema or allergic skin lesions, clinical evaluation; conditions: chronic eczema, twice daily, 0.6% (w/w) N-Ac-L-Tyr-L-Tyr-NHNH2 cream on one set of lesions, 0.7% (w/w) N-Ac-L-Tyr-L-Tyr-NHNHAc cream on another
Text: In another embodiment, the volunteer subject topically applied the test compositions containing N-acyldipeptide derivatives of the present invention on involved skin or lesions once or twice daily for several weeks or until the involved lesions completely cleared and clinically changed to normal skin. As a control study, the subject also topically applied a vehicle control composition on the involved skin or lesions twice daily for the same period.

Disturbed keratinization = test: Summary of test results in volunteer subjects: disturbed keratinization; conditions: efficacy grade
Text: (§1) In one embodiment, a composition for topical application to test its therapeutic effect was formulated by dissolving a bioactive dipeptide derivative of the present invention in a solution prepared from 40 parts water, 40 parts ethanol and 20 parts propylene glycol by volume (WEP442). In another embodiment, a composition was formulated by dissolving a bioactive dipeptide derivative of the present invention in a non-aqueous solution prepared from 80 parts ethanol and 20 parts propylene glycol by volume (EP82). In yet another embodiment, a composition was formulated first by dissolving a bioactive dipeptide derivative of the present invention in a solution prepared from 80 parts water and 20 parts propylene glycol by volume (WP82), and the solution thus prepared was mixed with an oil-in-water emulsion or cream. In another embodiment, the volunteer subject topically applied the test compositions containing N-acyldipeptide derivatives of the present invention on involved skin or lesions once or twice daily for several weeks or until the involved lesions completely cleared and clinically changed to normal skin. As a control study, the subject also topically applied a vehicle control composition on the involved skin or lesions twice daily for the same period. In yet another embodiment, the volunteer subject topically applied once or twice daily the test compositions containing N-acyldipeptide derivatives of the present invention on the skin site above arthritic joints or painful muscles to provide therapeutic effects for the systemic disorders via topical administration. Some test results are summarized as follows. DK: Disturbed keratinization

[2] = test system: Deranged immune disorders and inflammation; test: Summary of test results in volunteer subjects: deranged immune disorders and inflammation; conditions: efficacy grade
Text: as §1, with “DI: Deranged immune disorders and inflammation” for “DK: Disturbed keratinization”

forearm skin = test: Skin thickness of forearm by micrometer calipers after topical application; conditions: for increase in skin thickness of treated left forearm: 2% (w/v) in WEP442 topically twice daily, vehicle forearm no change
Procedure: In one of the studies related to skin changes associated with aging, skin thickness was measured by micrometer calipers as follows. The skin was grasped with a 2×6 cm metal hinge; the internal faces of which were coated with emery cloth to prevent slippage, and manually squeezed to threshold subject discomfort. Combined thickness of two whole-skin layers including thickness of the two hinge leaves was measured with micrometer calipers. Thickness of the two hinge leaves was subtracted to determine the actual thickness of two whole-skin layers. Triplicate measurements on treated sites were done and an average number was used for calculation of the skin thickness. In other studies, test sites of skin 17 mm in diameter were used, the circular sites were marked with permanent ink. Intervening control sites were also 17 mm in diameter. Thickness of skin of all sites was measured directly by means of an electronic digital caliper. In this instance the jaws of the caliper were opened to 17 mm, applied with pressure to the skin sites and then closed to firm tightness. Thickness of skin was then read off the screen of the calipers. Measurements of all sites were made in triplicates.

Nerve disorders = test: Summary of test results in volunteer subjects: nerve disorders; conditions: efficacy grade
Text: as §1, with “ND: Nerve disorders” for “DK: Disturbed keratinization”

[3] = test system: Aging related changes of skin, nail and hair; test: Summary of test results in volunteer subjects: aging related changes; conditions: efficacy grade
Text: as §1, with “AG: Aging related changes of skin, nail and hair” for “DK: Disturbed keratinization”

Which results are given for `CC(=O)N[C@@H](Cc1ccc(O)cc1)C(=O)N[C@@H](Cc1ccc(O)cc1)C(=O)NN` [N-Ac-L-Tyr-L-Tyr-NHNH2] (HELM PEPTIDE1{[ac].Y.Y.[NN[*:1]]}$$$$V2.0)?
improvement as judged by clinical evaluation ([1]; two weeks): 75%; itch after topical application [1]: stopped a few minutes after; DK (Disturbed keratinization): 3+ (3+: 75% Efficacy); DI [2]: 2+ (2+: 50% Efficacy); appearance of treated left forearm at end of treatment (forearm skin; 1-3% (w/v) in WEP442 topically twice daily for 1-6 weeks as in the example, vehicle forearm still loose, thin and wrinkled): more firm, smooth, plump, and less wrinkled when lifted; increase in skin thickness of treated left forearm (forearm skin; after one week): 15%; increase in skin thickness of treated left forearm (forearm skin; after three weeks): 32%; increase in skin thickness of treated left forearm (forearm skin; after two weeks): 14%; ND (Nerve disorders): 2+ (2+: 50% Efficacy); AG [3]: 3+ (3+: 75% Efficacy)

Which DK (Disturbed keratinization) does the source give for `CC[C@H](C)[C@H](NC(C)=O)C(=O)NCC(=O)O` [N-Ac-L-Ile-Gly-OH] (Ac-Ile-Gly-OH) here?
Its DK is 2+ (2+: 50% Efficacy).

What about the DI [2] of the same molecule?
Its DI is 3+ (3+: 75% Efficacy).

And the ND (Nerve disorders)?
The ND was 4+ (4+: 95-100% Efficacy).

And the AG [3]?
The AG was 2+ (2+: 50% Efficacy).

For `NC(=O)CNC(=O)[C@H](Cc1ccc(O)cc1)NC(=O)OCc1ccccc1` [N-Z-L-Tyr-Gly-NH2], which DK (Disturbed keratinization) is on record?
The DK was 2+ (2+: 50% Efficacy).

What about the DI [2] of the same molecule?
The DI was 2+ (2+: 50% Efficacy).

And the ND (Nerve disorders)?
Its ND is 2+ (2+: 50% Efficacy).

What about the AG [3] of the same molecule?
The AG was 2+ (2+: 50% Efficacy).

`CCOC(=O)[C@H](Cc1ccc(O)cc1)NC(=O)[C@H](Cc1ccc(O)cc1)NC(C)=O` [N-Ac-L-Tyr-L-Tyr-OEt] (HELM PEPTIDE1{[ac].Y.Y.[CCO[*:1]]}$$$$V2.0) was tested. Which DK (Disturbed keratinization) did it give?
Its DK is 2+ (2+: 50% Efficacy).

And the DI [2]?
The DI was 2+ (2+: 50% Efficacy).

And the ND (Nerve disorders)?
Its ND is 2+ (2+: 50% Efficacy).

What about the AG [3] of the same molecule?
The AG was 2+ (2+: 50% Efficacy).

What does the source list for `CC[C@H](C)[C@H](NC(C)=O)C(=O)NCC(N)=O` [N-Ac-L-Ile-Gly-NH2] (Ac-Ile-Gly-NH2)?
DK (Disturbed keratinization): 3+ (3+: 75% Efficacy); DI [2]: 4+ (4+: 95-100% Efficacy); ND (Nerve disorders): 4+ (4+: 95-100% Efficacy); AG [3]: 3+ (3+: 75% Efficacy)

With `CC(=O)N[C@@H](Cc1c[nH]c2ccccc12)C(=O)N[C@@H](Cc1c[nH]c2ccccc12)C(N)=O` [N-Ac-L-Trp-L-Trp-NH2] (Ac-Trp-Trp-NH2) as the molecule, how does the DK (Disturbed keratinization) read?
Its DK is 2+ (2+: 50% Efficacy).

And the DI [2]?
The DI was 2+ (2+: 50% Efficacy).

What about the ND (Nerve disorders) of the same molecule?
Its ND is 2+ (2+: 50% Efficacy).

And the AG [3]?
Its AG is 2+ (2+: 50% Efficacy).

For `CC(=O)N[C@@H](Cc1c[nH]cn1)C(=O)NCC(N)=O` [N-Ac-L-His-Gly-NH2] (Ac-His-Gly-NH2), which DK (Disturbed keratinization) is on record?
Its DK is 2+ (2+: 50% Efficacy).

What about the DI [2] of the same molecule?
Its DI is 2+ (2+: 50% Efficacy).

What about the ND (Nerve disorders) of the same molecule?
Its ND is 2+ (2+: 50% Efficacy).

And the AG [3]?
Its AG is 2+ (2+: 50% Efficacy).

What does the source list for `CC(=O)N[C@H](C(=O)NCC(N)=O)C(C)C` [N-Ac-L-Val-Gly-NH2] (Ac-Val-Gly-NH2)?
DK (Disturbed keratinization): 2+ (2+: 50% Efficacy); DI [2]: 4+ (4+: 95-100% Efficacy); ND (Nerve disorders): 4+ (4+: 95-100% Efficacy); AG [3]: 2+ (2+: 50% Efficacy)

For `CC(=O)N[C@@H](CC(N)=O)C(=O)NCC(N)=O` [N-Ac-L-Asn-Gly-NH2] (Ac-Asn-Gly-NH2), which DK (Disturbed keratinization) is on record?
The DK was 2+ (2+: 50% Efficacy).

And the DI [2]?
The DI was 2+ (2+: 50% Efficacy).

And the ND (Nerve disorders)?
Its ND is 2+ (2+: 50% Efficacy).

What about the AG [3] of the same molecule?
The AG was 2+ (2+: 50% Efficacy).

With N-Ac-L-Tyr-L-Hpg-NH2 as the molecule, how does the DK (Disturbed keratinization) read?
Its DK is 2+ (2+: 50% Efficacy).

What about the DI [2] of the same molecule?
Its DI is 2+ (2+: 50% Efficacy).

And the ND (Nerve disorders)?
The ND was 2+ (2+: 50% Efficacy).

And the AG [3]?
The AG was 2+ (2+: 50% Efficacy).

Which results are given for `CC[C@H](C)[C@H](NC(=O)[C@H](C)NC(C)=O)C(N)=O` [N-Ac-L-Ala-L-Ile-NH2] (Ac-Ala-Ile-NH2)?
DK (Disturbed keratinization): 2+ (2+: 50% Efficacy); DI [2]: 3+ (3+: 75% Efficacy); ND (Nerve disorders): 3+ (3+: 75% Efficacy); AG [3]: 2+ (2+: 50% Efficacy)

`CC(=O)Nc1ccccc1C(=O)NCC(N)=O` [N-Ac-Abz-Gly-NH2] was tested. Which DK (Disturbed keratinization) did it give?
The DK was 2+ (2+: 50% Efficacy).

And the DI [2]?
Its DI is 3+ (3+: 75% Efficacy).

What about the ND (Nerve disorders) of the same molecule?
The ND was 3+ (3+: 75% Efficacy).

What about the AG [3] of the same molecule?
Its AG is 2+ (2+: 50% Efficacy).

What does the source list for N,N′-diAc-βAla-L-His-NH2?
DK (Disturbed keratinization): 2+ (2+: 50% Efficacy); DI [2]: 2+ (2+: 50% Efficacy); ND (Nerve disorders): 2+ (2+: 50% Efficacy); AG [3]: 2+ (2+: 50% Efficacy)

With `CCC(=O)N[C@H](C(=O)N[C@@H](C)C(=O)O)C(C)C` [N-Pr-L-Val-L-Ala-OH] (HELM PEPTIDE1{[CCC(=O)[*:2]].V.A}$$$$V2.0) as the molecule, how does the DK (Disturbed keratinization) read?
Its DK is 2+ (2+: 50% Efficacy).

What about the DI [2] of the same molecule?
Its DI is 3+ (3+: 75% Efficacy).

What about the ND (Nerve disorders) of the same molecule?
Its ND is 4+ (4+: 95-100% Efficacy).

What about the AG [3] of the same molecule?
The AG was 2+ (2+: 50% Efficacy).
